According to patent US20220125882A1, “METHODS AND COMPOSITIONS FOR TREATMENT OF CANCER” (Enzychem Lifesciences Corporation, priority 2019, published 2022):
“And” between values parts separate entries of the source, which are not always exact repeats. Identical values can stand only once. “Also recorded” adds a separate entry of the source.

B1: G-CSF: granulocyte colony-stimulating factor used with neutrophils to co-stimulate MDA-MB-231 cells; form not specified (protein, UniProt P09919 31-207, looked up)
Granulocyte …: TPLGPASSLPQSFLLKCLEQVRKIQGDGAALQEKLVSECATYKLCHPEELVLLGHSLGIPWAPLSSCPSQALQLAGCLSQLHSGLFLYQGLLQALEGISPELGPTLDTLQLDVADFATTIWQQMEELGMAPALQPTQGAMPAFASAFQRRAGGVLVASHLQSFLEVSYRVLRHLAQP
B2: PEG-G-CSF: pegfilgrastim, a PEGylated form of filgrastim (recombinant human G-CSF) (protein, UniProt P09919 31-207, looked up)
Granulocyte …: B1 Granulocyte …
modifications: PEG, N-terminal methionine

What was measured:
4T1 cell line = assay: 4T1 tumor-bearing mouse model: tumor size and weight on Day 8; format: in vivo, BALB/c mice; conditions: for % weight Increase: % increase (+) or decrease (−) of tumor weight over body weight compared to control; for Tumor Weight Increase: change of average tumor weight compared to control; for Tumor Weight Average / % weight Average: group average; for Tumor Weight No. 1 / % weight No. 1: individual mouse No. 1; for Tumor Weight No. 1: 4T1 tumor-bearing BALB/c mice; for Tumor Weight No. 2 / % weight No. 2: individual mouse No. 2; for Tumor Weight No. 3 / % weight No. 3: individual mouse No. 3; for Tumor Weight No. 4 / % weight No. 4: individual mouse No. 4; for Tumor Weight No. 5 / % weight No. 5: individual mouse No. 5; for % weight Average / % weight No. 1 / % weight No. 2 / % weight No. 3 / % weight No. 4 / % weight No. 5: tumor weight over body weight
Protocol: On Day 2 and Day 3, the mice were administered 10 mg/kg of gemcitabine twice. On Day 4, 3 μg/mouse of PEG-G-CSF (Pegfilgrastim) was administrated via subcutaneous injection to the mice once. On every day of the study, 50 mg/kg of EC-18 diluted with PBS was administrated orally to the mice. A total of 24 tumor-bearing mice were classified into 5 groups consisting of control group (4 mice, Control), G-CSF administration group (5 mice, PEG-G-CSF), gemcitabine administration group (5 mice, Gemcitabine), G-CSF and gemcitabine co-administration group (5 mice, Gem+PEG), and EC-18 co-administration group (5 mice, Gem+PEG+EC-18), as summarized in Table 1 and FIG. 1A.
On Day 8, all mice were sacrificed and their tumors removed. The size and weight of the tumors were measured.

[1] = system: MDA-MB-231 breast cancer cells; assay: Wound healing assay (mobility), TAN / G-CSF co-culture; format: cell-based; conditions: for mobility of the cancer cells: G-CSF and neutrophil co-stimulation group, with or without PLAG
Protocol: (§1) MDA-MB-231 and HL60 cells were obtained from the American Type Culture Collection (ATCC, Rockville, Md., USA). MDA-MB-231 cells were grown in DMEM medium (WELGENE, Seoul, Korea) containing 10% fetal bovine serum (HyClone, Waltham, Mass., USA), 1% antibiotics (100 mg/l streptomycin, 100 U/ml penicillin), and 0.4% 2-Mercaptoethanol (Sigma Aldrich, St. Louis, Mo., USA). HL60 cells were grown in DMEM medium containing 10% fetal bovine serum and 1% antibiotics (100 mg/l streptomycin, 100 U/ml penicillin). Cells were grown at 37° C. in a 5% CO2 atmosphere. To differentiate HL60 cells into neutrophil-like cells, cells were grown in medium with […] (Sigma Aldrich) for 5 days.
MDA-MB-231 were seeded in 12 well plate with cover glass, and incubated to 100% confluence at well. After the incubation, make the wound cell monolayer on center of well. A treated PLAG and neutrophil and G-CSF co-stimulation for indicate time. After treatment the indicated time and dose at 37° C. in a 5% CO2 atmosphere, the cells were fixed with 3.7% formaldehyde for 20 min and permeabilized with 0.2% Triton X-100 for 20 min and stained with 0.1% Phalloidin-FITC for 40 min. Fluorescence was detected by confocal (Carl Zeiss, Thornwood, N.Y., USA).

[2] = system: MDA-MB-231 breast cancer cells; assay: Transwell invasion assay (MTT readout); format: cell-based; conditions: for transwell invasion of the cancer cells: G-CSF and neutrophil co-stimulation group, with or without PLAG; for Invasive cell count (MTT assay, % transform): MDA-MB-231, Samples 1-3
Protocol: as §1
Quantitative macrophage chemoattraction assays were performed using a modified Boyden chamber (SPL lifescience, Seoul, Korea) with 8.0-μm pore polycarbonate membrane inserts with matrigel-coated in 24-well plates. The lower chamber was filled with apoptotic neutrophils for chemoattraction. The MDA-MB-231 cells (5×10^4 cells/ml) in serum-free medium were added into the upper chamber and treated with PLAG. The cells were allowed to chemoattraction (Neutrophil co-culture supernatant) for indicate times at 37° C. in a 5% CO2 atmosphere. The non-chemoattracted cells were removed from the upper surface of the membrane by scraping with a cotton swab, and the chemoattracted cells were calculate by MTT assay.

Snail = assay: PCR of EMT marker expression in MDA-MB-231: Snail; format: cell-based; conditions: for Snail PCR band intensity (relative intensity): MDA-MB-231, Neutrophil co-culture, relative to None = 1, Samples 1-3; for expression level of SNAIL: neutrophil and G-CSF co-stimulation group, with or without PLAG
Protocol: as §1
(§2) Total RNA was extracted using RiboEx (GeneAll biotechnology, Seoul, Korea) according to the manufacturer's instructions, and cDNA was generated using ReverseAids cDNA synthesis kit (Thermo Scientific, Waltham, Mass., USA) according to the manufacturer's instructions. PCR was performed with the following temperature profile: a pre-denaturation step of 10 min at 95° C., followed by 35 cycles of 95° C. for 30 sec, annealing temperature for 30 sec and 72° C. for 30 sec and a final exposure to 72° C. for 10 min. Specific primer sequence for amplification was Table 5.

N-cadherin = assay: PCR of EMT marker expression in MDA-MB-231: N-cadherin; format: cell-based; conditions: for N-cadherin PCR band intensity (relative intensity): MDA-MB-231, Neutrophil co-culture, relative to None = 1, Samples 1-3; for expression level of NCAD: neutrophil and G-CSF co-stimulation group, with or without PLAG
Protocol: as §1, §2

Vimentin = assay: PCR of EMT marker expression in MDA-MB-231: Vimentin; format: cell-based; conditions: for Vimentin PCR band intensity (relative intensity): MDA-MB-231, Neutrophil co-culture, relative to None = 1, Samples 1-3; for expression level of Vimentin: neutrophil and G-CSF co-stimulation group, with or without PLAG
Protocol: as §1, §2

TGF-β = TGF-β ELISA of cell supernatants; format: cell-based; conditions: for TGF-β ELISA (450 nm OD): Samples 1-3; for secretion level of TGF-β: TAN and G-CSF costimulation environment, with or without PLAG
Protocol: as §1
(§3) The levels of cytokine secretion in the cell supernatants or plasma were analyzed using an enzyme-linked immunosorbent assay (ELISA) specifically for cytokines from BD Bioscience according to the manufacturer's protocol. The absorbance was measured at 450 nm using an EMax Endpoint ELISA microplate reader (Molecular Devices Corporation, Sunnyvale, Calif., USA).

IFN-γ = IFN-γ ELISA of cell supernatants; format: cell-based; conditions: for IFN-γ ELISA (450 nm OD): Samples 1-3; for secretion of IFN-γ: TAN environment, PLAG treatment, or G-CSF co-stimulation vs neutrophil only group
Protocol: as §1, §3

Smad proteins = assay: Smad protein activity by Western blotting in MDA-MB-231; format: cell-based; conditions: TAN and G-CSF co-stimulation
Protocol: as §1
(§4) MDA-MB-231 cells treated with PLAG and stimulated to induce neutrophil and G-CSF co-stimulation for various times at 37° C. in a 5% CO2 atmosphere were lysed using ice-cold IP lysis buffer (25 mM Tris-HCl pH 7.4, 150 mM NaCl, 1% NP-40, 1 mM EDTA, 5% glycerol). Extracted proteins were incubated with Surebeads Protein G specific antibody bound magnetic beads (Bio-Rad, Hercules, Calif., USA). Beads were washed with PBS with Tween 20 (PBST) and target proteins eluted in 1× sample buffer and analyzed by Western blotting.

SMAD2/3-SMAD4 complex = assay: Immunoprecipitation of Smad complex in MDA-MB-231; format: cell-based; conditions: TAN and G-CSF co-stimulation
Protocol: as §1, §4

SMAD2/3 = assay: Confocal immunofluorescence of Smad nucleus translocation in MDA-MB-231; format: cell-based; conditions: TAN and G-CSF co-stimulation
Protocol: as §1
MDA-MB-231 cells were seeded in 12 well plate with cover glass, and incubated to 60% confluence at well. After the incubation, treated PLAG and neutrophil and G-CSF co-stimulation for indicate time. After treatment the indicated time at 37° C. in a 5% CO2 atmosphere, the cells were fixed with 3.7% formaldehyde for 20 min and permeabilized with 0.2% Triton X-100 for 20 min for staining. Cells were washed with PBST twice and reacted with specific antibody (SMAD2/3) for over-night at 4° C. Cells were washed with PBST twice and reacted secondary antibody. For nucleus detection, it stained with 1% Hoechst33342 for 20 min. Fluorescence was detected by confocal (Carl Zeiss, Thornwood, N.Y., USA).

Molecule | % weight Increase (4T1 cell line) | Tumor Weight Increase (4T1 cell line; Day 8) | Tumor Weight Average (4T1 cell line; Day 8) [×0.01 g] | Tumor Weight No. 1 (4T1 cell line; Day 8) [×0.01 g] | Tumor Weight No. 2 (4T1 cell line; Day 8) [×0.01 g] | Tumor Weight No. 3 (4T1 cell line; Day 8) [×0.01 g] | Tumor Weight No. 4 (4T1 cell line; Day 8) [×0.01 g] | Tumor Weight No. 5 (4T1 cell line; Day 8) [×0.01 g] | % weight Average (4T1 cell line; Day 8) [%] | % weight No. 1 (4T1 cell line; Day 8) [%] | % weight No. 2 (4T1 cell line; Day 8) [%] | % weight No. 3 (4T1 cell line; Day 8) [%] | % weight No. 4 (4T1 cell line; Day 8) [%] | % weight No. 5 (4T1 cell line; Day 8) [%] | mobility of the cancer cells [1] | transwell invasion of the cancer cells [2] | Invasive cell count (MTT assay, % transform) ([2]; Neutrophil co-culture) | Snail PCR band intensity (relative intensity) (Snail) | expression level of SNAIL (Snail) | N-cadherin PCR band intensity (relative intensity) (N-cadherin) | other results
Nc1ccn([C@@H]2O[C@H](CO)[C@@H](O)C2(F)F)c(=O)n1 [Gemcitabine, gemcitabine, reference compound] | −22.6% | −25.0% | 24 ± 12 | 38 | 9 | 32 | 27 | 14 | 0.97 ± 0.51 | 1.55 | 0.36 | 1.32 | 1.08 | 0.54 |  |  |  |  |  |  | tumor weight decreased compared to control (4T1 cell line; Day 8): about 25%
CCCCC/C=C\C/C=C\CCCCCCCC(=O)OC(COC(C)=O)COC(=O)CCCCCCCCCCCCCCC (stereo not shown) [PLAG, 1-palmitoyl-2-linoleoyl-3-acetylglycerol] |  |  |  |  |  |  |  |  |  |  |  |  |  |  | inhibited the cancer cell abnormal-metastasis | inhibited the cancer cell abnormal-metastasis | 212.500% and 235.417% and 216.667% | 0.531 and 0.749 and 0.527 | expression was decreased | 0.723 and 0.747 and 0.732 | mobility of MDA-MB-231 cells ([1]; neutrophil-stimulated): mobility decreased; Invasive cell count (MTT assay, % transform) ([2]; without neutrophil): 89.583% and 104.167% and 102.083%; transwell invasion of MDA-MB-231 cells ([2]; neutrophil-stimulated culture sup.): invasion of cancer cells is decreased; expression level of NCAD (N-cadherin): expression was decreased; Vimentin PCR band intensity (relative intensity) (Vimentin): 0.501 and 0.512 and 0.504; expression level of Vimentin (Vimentin): expression was decreased; TGF-β ELISA (450 nm OD) (TGF-β; Neutrophil co-culture): 0.484 OD and 0.476 OD and 0.474 OD; secretion level of TGF-β (TGF-β): did not significantly decrease; also recorded: did not change; TGF-β ELISA (450 nm OD) (TGF-β; without neutrophil): 0.248 OD and 0.287 OD and 0.208 OD; IFN-γ ELISA (450 nm OD) (IFN-γ; Neutrophil co-culture): 0.181 OD and 0.158 OD and 0.164 OD; secretion of IFN-γ (IFN-γ): significantly increased; IFN-γ ELISA (450 nm OD) (IFN-γ; without neutrophil): 0.144 OD and 0.149 OD and 0.156 OD; SMAD activity (TGF-β signal pathway) (Smad proteins): decreased; formation of the SMAD2/3-SMAD4 complex (SMAD2/3-SMAD4 complex): decreases; nucleus translocation of SMAD2/3 and SMAD4 (SMAD2/3): decreased
B1 |  |  |  |  |  |  |  |  |  |  |  |  |  |  | further increased | further increased | 366.667% and 352.083% and 383.333% | 2.4 and 2.781 and 1.635 | increased | 4.517 and 4.511 and 5.214 | expression level of NCAD (N-cadherin): increased; Vimentin PCR band intensity (relative intensity) (Vimentin): 1.832 and 1.854 and 1.867; expression level of Vimentin (Vimentin): increased; TGF-β ELISA (450 nm OD) (TGF-β; Neutrophil co-culture): 0.439 OD and 0.446 OD and 0.414 OD; secretion level of TGF-β (TGF-β): increased; IFN-γ ELISA (450 nm OD) (IFN-γ; Neutrophil co-culture): 0.139 OD and 0.102 OD and 0.094 OD; secretion of IFN-γ (IFN-γ): significantly lower
B2 | +22.7% | +19.4% | 38 ± 11 | 47 | 30 | 53 | 30 | 31 | 1.54 ± 0.52 | 2.02 | 1.12 | 2.20 | 1.20 | 1.17 |  |  |  |  |  |  | tumor weight increased compared to control (4T1 cell line; Day 8): about 19.4%
